Reference: article PMC6155662, “Trypanocidal Activity of Quinoxaline 1,4 Di-N-oxide Derivatives as Trypanothione Reductase Inhibitors” (Molecules : A Journal of Synthetic Chemistry and Natural …, 2017)

Columns and labels:
[1] = test system: T. cruzi bloodstream trypomastigotes INC-5 strain; test: microbe, parasite or virus in culture; type: cell-based; conditions: Trypanosoma cruzi; for CC50: 24 h, bloodstream trypomastigotes, 24 h at 4 °C (called IC50 in abstract), read-out: LC50 INC-5 Strain; for killing at 50 µg/mL: 50 μg/mL, 24 h at 4 °C, infected mouse blood, read-out: % Lysis at 50 μg/mL INC-5 Strain
Protocol: (§1) In this study, two strains of T. cruzi isolated in Mexico were used. T. cruzi NINOA strain (MHOM/MX/1994/NINOA) was obtained from a patient with acute Chagas disease and T. cruzi INC-5 (MHOM/MX/1994/INC5) was isolated from a patient in the chronic phase of the disease. Epimastigotes were cultured in vitro in liver infusion-tryptose (LIT) medium supplemented with 10% heat inactivated fetal bovine serum (FBS) (Gibco) and 100 U/mL penicillin-streptomycin (In vitro S.A.), and incubated at 27 °C. CD1 mice, aged 6–8 weeks, were infected with T. cruzi to obtain bloodstream trypomastigote samples. Animal experiments were performed according to Norma Oficial Mexicana (NOM-062-Z00-1999) published on 22 August, 2009.
(§2) CD1 female mice 6–8 weeks old were infected with T. cruzi bloodstream trypomastigotes of the INC-5 and NINOA strains. The course of infection continued for 4–6 weeks. At the peak of parasitemia blood was obtained by cardiac puncture using sodium heparin as an anticoagulant. The blood was adjusted to 1 × 10^6 bloodstream trypomastigotes/mL.
(§3) In each well of the 96-well plate, 195 μL of infected blood and 5 μL of quinoxaline 1,4-di-N-oxide derivatives or reference drug dilutions were seeded, with each well reaching a final volume of 200 µL. Each assay was performed in triplicate. Initially, all compounds were tested at 50 μg/mL. […] As a negative control of lysis, wells with untreated blood trypomastigotes were used, and as a positive control, wells with the reference drugs were used. The microplates were incubated at 4 °C for 24 h. Bloodstream trypomastigotes were quantified by the method of Brener-Pizzi, 5 μL of blood were placed on a slide and covered with a coverslip 13 × 13 mm. The mobile protozoa were counted in 15 fields at 40× magnification using an optical microscope. The percentage lysis was determined by comparing the remaining trypomastigotes against the negative control. LC50 was determined with the Probit statistical tool. The results were later converted to micromolar units.

[2] = test system: T. cruzi bloodstream trypomastigotes NINOA strain; test: microbe, parasite or virus in culture; type: cell-based; conditions: Trypanosoma cruzi; for killing at 50 µg/mL: 50 μg/mL, 24 h at 4 °C, infected mouse blood, read-out: % Lysis at 50 μg/mL NINOA Strain; for LC50: 24 h
Protocol: as §1, §2, §3

[3] = test system: T. cruzi INC-5 epimastigotes; test: Viability (MTT) assay on T. cruzi epimastigotes; type: cell-based, Trypanosoma cruzi; conditions: Trypanosoma cruzi, 24 h, mean and SD of triplicate
Protocol: In this study, two strains of T. cruzi isolated in Mexico were used. […] Epimastigotes were cultured in vitro in liver infusion-tryptose (LIT) medium supplemented with 10% heat inactivated fetal bovine serum (FBS) (Gibco) and 100 U/mL penicillin-streptomycin (In vitro S.A.), and incubated at 27 °C. CD1 mice, aged 6–8 weeks, were infected with T. cruzi to obtain bloodstream trypomastigote samples.
Viability assays of T. cruzi epimastigotes using 3-(4,5-dimethylthiazol-2-yl)-2,5-diphenyltetrazolium bromide (MTT) were performed. Briefly, the parasites were harvested during the exponential growth phase for a period of five days. In a 96-well microplate 1x10^6 epimastigotes were deposited in brain-heart infusion (BHI) medium supplemented with 10% FBS and 100 U/mL antibiotic-antifungal mixture (Gibco). […] Each well reached a final volume of 100 µL. Each condition was assessed in triplicate. The microplate was incubated for 24 h at 27 °C in darkness. Afterwards, 10 μL of a 5 mg/mL MTT solution was added and the plate was incubated for 20 h at 27 °C. Then 200 μL of 10% dodecyl sulfate (SDS)/0.1% HCl solution was added to dissolve formazan salts; the plate was incubated an additional 4 h. Finally, the plate was read at 570 nm in a spectrophotometer (Multiskan EX Thermo Electron, Taipei, Taiwan). The amount of viable cells was proportional to the amount of formazan produced. […] Later the results were converted to micromolar units. […] As a […] control, parasites were incubated only in culture medium with a 1% DMSO concentration, corresponding to the highest sample dilution of DMSO [34, 35, 36].

[4] = Cytotoxicity assay (Alamar Blue) on macrophages; type: cell-based, murine; conditions: mouse, J774A.1 macrophages, mean and SD of triplicate
Protocol: The murine macrophage cell line J774.A1 was maintained in culture flasks with RPMI 1640 medium supplemented with 10% FBS, 1% MEM-NEAA medium (Gibco) and 100 U/mL antibiotic-antifungal mixture (Gibco). Cells were incubated at 37 °C with 5% CO2 and humidity. Trypsinized J774.A1 macrophages were washed and viability was assessed by the trypan blue dye (Sigma-Aldrich, Toluca, Edo de Mexico, Mexico) exclusion assay. In a 96-well microplate, 50,000 macrophages were seeded per well and a dose-response assay was performed. Compounds were evaluated using six-fold serial dilutions ranging from 100 µg/mL to 0.3 µg/mL of final concentration. Each compound was tested in triplicate. After 20 h incubation, Alamar Blue was added (10% v/v) and cells were incubated for an additional 4 h period. Results were obtained as previously described and CC50 was calculated. As a negative control of cytotoxicity, cells were incubated only in the presence of 0.1% DMSO [39, 40].

Row | Structure (SMILES) | IC50 [3] | CC50 [1] | killing at 50 µg/mL [1] | killing at 50 µg/mL [2] | CC50 at 24 h [4] | LC50 [2]
1 | O=C(Cn1ccnc1[N+](=O)[O-])NCc1ccccc1 [Bnz, benznidazole, reference compound] | 42.3 ± 5.76 µM | 85.3 ± 16.7 µM | 53.5 ± 5.6% | 58.1 ± 4.5% | 352 ± 17.1 µM | 
2 | CCOC(=O)Cc1c(C(=O)OCC)[n+]([O-])c2cc(C(=O)OC(C)C)ccc2[n+]1[O-] [Compound T-067, Isopropyl ethyl-3-(2-ethoxy-2-oxoethyl) quinoxaline-2,7-dicarboxylate 1,4-di-N-oxide] | 12.1 ± 0.4 µM |  | 14.4 ± 9.2% | 18.5 ± 2.2% | 44.4 ± 7.1 µM | 
3 | CC(=O)c1c(C(F)(F)F)[n+]([O-])c2ccc(C(=O)OC(C)C)cc2[n+]1[O-] [Compound T-070, Isopropyl 2-acetyl-3-trifluoromethylquinoxaline-7-carboxylate 1,4-di-N-oxide] | 2.83 ± 0.7 µM |  | 10.8 ± 5.4% | 46 ± 2.7% | 17.5 ± 0.7 µM | 
4 | CC(C)OC(=O)c1ccc2c(c1)[n+]([O-])c(C(=O)c1ccco1)c(C(F)(F)F)[n+]2[O-] [Compound T-073, Isopropyl 2-(furyl-2-carbonyl)-3-trifluoromethylquinoxaline-7-carboxylate 1,4-di-N-oxide] | 33.7 ± 9.2 µM |  | 22.1 ± 4.32% | 35 ± 4.5% | 55.4 ± 2.9 µM | 
5 | CCCOC(=O)c1ccc2c(c1)[n+]([O-])c(C(=O)OC(C)(C)C)c(C)[n+]2[O-] [Compound T-091, n-Propil tert-butyl-3-methylquinoxaline-2,7-dicarboxylate 1,4-di-N-oxide] | > 137 µM |  | 8.15 ± 2.2% | 7.3 ± 3.3% | > 273 µM | 
6 | Cc1c(C(=O)Nc2ccccc2)[n+]([O-])c2cc(C(=O)OC(C)C)ccc2[n+]1[O-] [Compound T-097, Isopropyl 2-phenylamide-3-methylquinoxaline-7-carboxylate 1,4-di-N-oxide] | > 130 µM |  | 12.4 ± 5.2% | 12.2 ± 10.9% | > 261 µM | 
7 | CC(C)OC(=O)c1ccc2c(c1)[n+]([O-])c(C(=O)C(C)(C)C)c(C(C)(C)C)[n+]2[O-] [Compound T-107, Isopropyl 2-(tert-butyl-2-carbonyl)-3-tert-butylquinoxaline-7-carboxylate 1,4-di-N-oxide] | 91.7 ± 10.5 µM |  | 5.32 ± 3.8% | 6.28 ± 4.7% | 164 ± 7.7 µM | 
8 | Cc1c(C(N)=O)[n+]([O-])c2cc(C(=O)OC(C)C)ccc2[n+]1[O-] [Compound T-108, Isopropyl 2-amide-3-methyl-quinoxaline-7-carboxilate 1,4-di-N-óxide] | 131 ± 12.3 µM |  | 18.8 ± 2.8% | 12.8 ± 7.2% | 221 ± 9.4 µM | 
9 | CCOC(=O)c1c(C(F)(F)F)[n+]([O-])c2ccc(C(=O)OC(C)C)cc2[n+]1[O-] [Compound T-116, Isopropyl ethyl-3-trifluoromethylquinoxaline-2,7-dicarboxylate 1,4-di-N-oxide] | 5.2 ± 2.1 µM |  | 17.6 ± 2.6% | 49.9 ± 4% | 14.5 ± 0.8 µM | 

More lines, main results first:

Row | IC50 [3] | Structure (SMILES) | CC50 [1] | killing at 50 µg/mL [1] | killing at 50 µg/mL [2] | CC50 at 24 h [4] | LC50 [2]
10 | 43.7 ± 8.6 µM | COC(=O)c1c(C)[n+]([O-])c2ccc(C(=O)OC(C)C)cc2[n+]1[O-] [Compound T-064, Isopropyl methyl-3-methyl-quinoxaline-2,7-dicarboxylate 1,4-di-N-oxide] |  | 1.7 ± 2% | 3.2 ± 2% | 135 ± 11.1 µM | 
11 | > 148 µM | CCOC(=O)c1c(C)[n+]([O-])c2ccc(C(=O)OC(C)C)cc2[n+]1[O-] [Compound T-065, Isopropyl ethyl-3-methylquinoxaline-2,7-dicarboxylate 1,4-di-N-oxide] |  | 3.78 ± 5.7% | 0.77 ± 1.58% | > 296 µM | 
12 | > 137 µM | Cc1c(C(=O)OC(C)(C)C)[n+]([O-])c2cc(C(=O)OC(C)C)ccc2[n+]1[O-] [Compound T-066, Isopropyl tert-butyl-3-methylquinoxaline-2,7-dicarboxylate 1,4-di-N-oxide] |  | 5.4 ± 3.7% | 2.6 ± 4.3% | > 273 µM | 
13 | 4.95 ± 0.5 µM | CC(C)OC(=O)c1ccc2c(c1)[n+]([O-])c(C(=O)c1cccs1)c(C(F)(F)F)[n+]2[O-] [Compound T-069, Isopropyl 2-(thiophene-2-carbonyl)-3-trifluoromethylquinoxaline-7-carboxylate 1,4-di-N-oxide] | 111 ± 9.3 µM | 77.7 ± 9.3% | 57.3 ± 2.8% | 12.8 ± 0.6 µM | 98 ± 6.1 µM
14 | 4.03 ± 0.5 µM | CC(C)OC(=O)c1ccc2c(c1)[n+]([O-])c(C(=O)c1ccccc1)c(C(F)(F)F)[n+]2[O-] [Compound T-071, Isopropyl 2-benzoyl-3-trifluoromethylquinoxaline-7-carboxylate 1,4-di-N-oxide] | 103 ± 8.3 µM | 69.2 ± 5.1% | 58.8 ± 4.4% | 6.7 ± 0.8 µM | 97.8 ± 6.3 µM
15 | 139 ± 13.5 µM | CCCOC(=O)c1ccc2c(c1)[n+]([O-])c(C(=O)OC)c(C)[n+]2[O-] [Compound T-088, n-Propil methyl-3-methylquinoxaline-2,7-dicarboxylate 1,4-di-N-oxide] |  | 33.6 ± 6.8% | 16.3 ± 11.1% | 143 ± 9.7 µM | 
16 | 7.59 ± 1.4 µM | CCCOC(=O)c1ccc2c(c1)[n+]([O-])c(C(=O)c1cccs1)c(C(F)(F)F)[n+]2[O-] [Compound T-089, n-Propil 2-(thiophene-2-carbonyl)-3-trifluoromethylquinoxaline-7-carboxylate 1,4-di-N-oxide] | 122 ± 6.5 µM | 42 ± 6.5% | 51.6 ± 3.4% | 7.71 ± 0.7 µM | 115 ± 8.4 µM
17 | 155 ± 12.3 µM | CCCOC(=O)c1ccc2c(c1)[n+]([O-])c(C(=O)OCC)c(C)[n+]2[O-] [Compound T-090, n-Propil ethyl-3-methylquinoxaline-2,7-dicarboxylate 1,4-di-N-oxide] |  | 47.3 ± 3.3% | 28.6 ± 3.1% | 146 ± 9.2 µM | 
18 | 142 ± 8.3 µM | Cc1c(C(=O)c2ccccc2)[n+]([O-])c2cc(C(=O)OC(C)C)ccc2[n+]1[O-] [Compound T-098, Isopropyl 2-benzoyl-3-methylquinoxaline-7-carboxylate 1,4-di-N-oxide] |  | 0.34 ± 0.6% | 6.89 ± 5.8% | 140 ± 8.1 µM | 
19 | 72.2 ± 8 µM | CC(C)OC(=O)c1ccc2c(c1)[n+]([O-])c(C(=O)C(F)(F)C(F)(F)F)c(C(F)(F)F)[n+]2[O-] [Compound T-118, Isopropyl 2-pentafluorocarbonyl-3-trifluoromethylquinoxaline-7-carboxylate 1,4-di N-oxide] |  | 0% | 34.4 ± 3.1% | 157 ± 6.3 µM | 
